Experimental data from ChEMBL document CHEMBL4831524, “AZD0284, a Potent, Selective, and Orally Bioavailable Inverse Agonist of Retinoic Acid Receptor-Related Orphan Receptor C2” (J Med Chem, 2021).
pIC50: −log10 of the molar value. One block for each compound: values may come before it.

Columns and labels:
cells = conditions: Homo sapiens, Th17, 96 h
in vitro = conditions: human, liver microsomes
physchem = conditions: 1-octanol/phosphate buffered saline, pH 7.4
[1] = Apparent permeability across apical to basolateral side in human Caco-2 cells; format: ADME, cell-based
[2] = Intrinsic permeability of compound from apical to basolateral side in human Caco2 cells; format: ADME, cell-based; conditions: Caco-2
[3] = biological target: Voltage-gated inwardly rectifying potassium channel KCNH2 (Homo sapiens, UniProt Q12809)
Chain of Voltage-gated inwardly rectifying potassium channel KCNH2 (Q12809 whole entry): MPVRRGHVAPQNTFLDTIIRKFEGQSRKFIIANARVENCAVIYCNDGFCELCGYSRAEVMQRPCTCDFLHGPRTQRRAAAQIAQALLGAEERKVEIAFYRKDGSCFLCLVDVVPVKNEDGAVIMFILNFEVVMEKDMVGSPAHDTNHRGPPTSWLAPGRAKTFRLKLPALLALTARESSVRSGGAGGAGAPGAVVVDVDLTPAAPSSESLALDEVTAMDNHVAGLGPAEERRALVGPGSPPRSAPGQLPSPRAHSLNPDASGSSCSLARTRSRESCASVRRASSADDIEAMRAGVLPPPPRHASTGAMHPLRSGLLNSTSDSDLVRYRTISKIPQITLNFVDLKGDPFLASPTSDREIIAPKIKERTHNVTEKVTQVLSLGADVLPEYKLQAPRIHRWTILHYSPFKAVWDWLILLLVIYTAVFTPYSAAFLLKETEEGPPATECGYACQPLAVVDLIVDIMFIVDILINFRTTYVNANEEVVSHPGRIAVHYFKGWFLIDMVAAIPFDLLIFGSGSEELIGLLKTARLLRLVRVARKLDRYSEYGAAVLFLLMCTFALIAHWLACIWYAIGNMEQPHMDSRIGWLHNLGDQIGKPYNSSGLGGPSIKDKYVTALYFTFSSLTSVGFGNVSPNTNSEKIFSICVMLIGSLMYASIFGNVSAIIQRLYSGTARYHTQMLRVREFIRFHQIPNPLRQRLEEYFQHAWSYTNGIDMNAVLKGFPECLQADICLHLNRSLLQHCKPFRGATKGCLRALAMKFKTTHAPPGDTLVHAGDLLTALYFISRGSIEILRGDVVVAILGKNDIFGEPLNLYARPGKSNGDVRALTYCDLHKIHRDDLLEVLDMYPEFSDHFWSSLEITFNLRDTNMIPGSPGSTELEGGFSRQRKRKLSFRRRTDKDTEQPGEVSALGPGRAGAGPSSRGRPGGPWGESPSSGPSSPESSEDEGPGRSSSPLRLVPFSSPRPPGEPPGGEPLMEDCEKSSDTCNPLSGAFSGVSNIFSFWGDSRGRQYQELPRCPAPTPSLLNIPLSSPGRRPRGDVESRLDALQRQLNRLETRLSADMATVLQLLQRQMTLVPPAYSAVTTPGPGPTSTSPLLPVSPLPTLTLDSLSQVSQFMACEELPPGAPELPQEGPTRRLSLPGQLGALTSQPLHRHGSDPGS

[4] = Plasma protein binding in mouse assessed as unbound fraction by equilibrium dialysis; format: ADME, cell-free
[5] = Plasma protein binding in rat assessed as unbound fraction by equilibrium dialysis; format: ADME, cell-free
[6] = Plasma protein binding in dog assessed as unbound fraction by equilibrium dialysis; format: ADME, cell-free, Canis lupus familiaris
[7] = Apparent permeability across basolateral to apical side in human Caco-2 cells; format: ADME, cell-based
MDR1 [8] = assay: Apparent permeability across apical to basolateral side in dog MDCK-MDR1 cells; format: ADME, cell-based, Canis lupus familiaris
MDR1 [9] = assay: Apparent permeability across basolateral to apical side in dog MDCK-MDR1 cells; format: ADME, cell-based, Canis lupus familiaris
[10] = Metabolic stability in mouse hepatocytes assessed as intrinsic clearance measured per 10^6 cells; format: ADME, cell-based, Hepatocyte; conditions: read-out: CLH
[11] = Metabolic stability in dog hepatocytes assessed as intrinsic clearance measured per 10^6 cells; format: ADME, cell-based, Canis lupus familiaris, Hepatocyte; conditions: read-out: CLH
[12] = Total plasma clearance in C57BL/6 mouse at 1 mg/kg, iv; format: ADME, organism-based
[13] = Total plasma clearance in Han Wistar rat at 1 mg/kg, iv; format: ADME, organism-based
[14] = Total plasma clearance in Beagle dog at 1 mg/kg, iv; format: ADME, organism-based, Canis lupus familiaris
[15] = Renal clearance in Han Wistar rat at 0.5 mg/kg, iv; format: ADME, organism-based, Kidney; conditions: in vivo
[16] = Biliary clearance in Han Wistar rat at 1 mg/kg, iv; format: ADME, organism-based, Bile; conditions: in vivo
[17] = Volume of distribution at steady state in C57BL/6 mouse at 1 mg/kg, iv; format: ADME, organism-based; conditions: in vivo, read-out: Vdss
[18] = Volume of distribution at steady state in Han Wistar rat at 0.5 mg/kg, iv; format: ADME, organism-based; conditions: in vivo, read-out: Vdss
[19] = Volume of distribution at steady state in Beagle dog at 1 mg/kg, iv; format: ADME, organism-based, Canis lupus familiaris; conditions: in vivo, read-out: Vdss
[20] = Half life in C57BL/6 mouse at 1 mg/kg, iv; format: ADME, organism-based; conditions: in vivo
[21] = Half life in Han Wistar rat at 0.5 mg/kg, iv; format: ADME, organism-based; conditions: in vivo
[22] = Half life in Beagle dog at 1 mg/kg, iv; format: ADME, organism-based, Canis lupus familiaris; conditions: in vivo
[23] = Oral bioavailability in C57BL/6 mouse at 2 mg/kg using amorphous form of sample; format: ADME, organism-based; conditions: in vivo
[24] = Oral bioavailability in Han Wistar rat at 1 mg/kg using amorphous form of sample; format: ADME, organism-based; conditions: in vivo
[25] = Oral bioavailability in Beagle dog at 3 mg/kg using amorphous form of sample; format: ADME, organism-based, Canis lupus familiaris; conditions: in vivo
[26] = Oral bioavailability in Han Wistar rat at 50 mg/kg using crystaline form of sample; format: ADME, organism-based; conditions: in vivo
[27] = Oral bioavailability in Beagle dog at 10 mg/kg using crystaline form of sample; format: ADME, organism-based, Canis lupus familiaris; conditions: in vivo
[28] = Oral bioavailability in Han Wistar rat at 50 mg/kg using EtOH form of sample; format: ADME, organism-based; conditions: in vivo
[29] = Fraction absorbed in C57BL/6 mouse at 2 mg/kg, po using amorphous form of sample; format: ADME, organism-based; conditions: in vivo, read-out: Fabs
[30] = Fraction absorbed in Han Wistar rat at 1 mg/kg, po using amorphous form of sample; format: ADME, organism-based; conditions: in vivo, read-out: Fabs
[31] = Fraction absorbed in Beagle dog at 3 mg/kg, po using amorphous form of sample; format: ADME, organism-based, Canis lupus familiaris; conditions: in vivo, read-out: Fabs
[32] = Fraction absorbed in Han Wistar rat at 50 mg/kg, po using crystaline form of sample; format: ADME, organism-based; conditions: in vivo, read-out: Fabs
[33] = Fraction absorbed in Beagle dog at 10 mg/kg, po using crystaline form of sample; format: ADME, organism-based, Canis lupus familiaris; conditions: in vivo, read-out: Fabs
[34] = Fraction absorbed in Han Wistar rat at 50 mg/kg, po using EtOH form of sample; format: ADME, organism-based; conditions: in vivo, read-out: Fabs
Mus musculus [35] = species: Mus musculus; assay: animal or person; conditions: C57BL/6NCrl, sc, 168 h, read-out: INH
Mus musculus [36] = species: Mus musculus; assay: animal or person; conditions: C57BL/6NCrl, sc, 168 h, read-out: INH; remark: listed apart in the source

pIC50 (cells): 6.65
microsomal CLint (in vitro): < 3 µL/min/mg
logD (physchem): 2.9
SMILES: CCS(=O)(=O)c1ccc(C(Cc2nnco2)C(=O)Nc2ccc(C(O)(C(F)(F)F)C(F)(F)F)cc2)cc1 (stereo not given)

Papp A→B [1]: 0.7 ×10⁻⁶ cm/s
Pm [2]: 7.7
pIC50 (cells): 7.20
microsomal CLint (in vitro): < 3 µL/min/mg
logD (physchem): 2.5
SMILES: CCS(=O)(=O)c1ccc(C(NC(C)=O)C(=O)Nc2ccc(C(O)(C(F)(F)F)C(F)(F)F)cc2)nc1 (stereo not given)

microsomal CLint (in vitro): < 3 µL/min/mg
logD (physchem): 2.9
SMILES: CCS(=O)(=O)c1ccc2c(c1)CN(C=O)C2C(=O)Nc1ccc(C(O)(C(F)(F)F)C(F)(F)F)cc1 (stereo not given)

Papp A→B [1]: 1.1 ×10⁻⁶ cm/s
Pm [2]: 14.2
pIC50 (cells): 7.70
microsomal CLint (in vitro): 22 µL/min/mg
logD (physchem): 3.5
SMILES: CCS(=O)(=O)c1ccc(C(NC(=O)CC2CC2)C(=O)Nc2ccc(C(O)(C(F)(F)F)C(F)(F)F)cc2)nc1 (stereo not given)
pIC50 [3]: 4.47

Papp A→B [1]: 0.9 ×10⁻⁶ cm/s
Pm [2]: 29
microsomal CLint (in vitro): 21 µL/min/mg
logD (physchem): 4
SMILES: CCS(=O)(=O)c1ccc(C(NC(=O)Cc2ccccc2)C(=O)Nc2ccc(C(O)(C(F)(F)F)C(F)(F)F)cc2)nc1 (stereo not given)
pIC50 [3]: 4.80

Papp A→B [1]: 2.6 ×10⁻⁶ cm/s
Pm [2]: 44
pIC50 (cells): 6.44
microsomal CLint (in vitro): 16 µL/min/mg
logD (physchem): > 4
SMILES: CCS(=O)(=O)c1ccc(C(Cn2cccn2)C(=O)Nc2ccc(C(O)(C(F)(F)F)C(F)(F)F)cc2)cc1 (stereo not given)
pIC50 [3]: 5.62

Papp A→B [1]: 0.4 ×10⁻⁶ cm/s
Pm [2]: 8
microsomal CLint (in vitro): < 3 µL/min/mg
logD (physchem): 3.1
SMILES: CCS(=O)(=O)c1ccc(C(CC(=O)NC)C(=O)Nc2ccc(C(O)(C(F)(F)F)C(F)(F)F)cc2)cc1 (stereo not given)

microsomal CLint (in vitro): 11 µL/min/mg
logD (physchem): 2.5
SMILES: COCCS(=O)(=O)c1ccc2c(c1)CN(C(C)=O)C2C(=O)Nc1ccc(C(O)(C(F)(F)F)C(F)(F)F)cc1 (stereo not given)

Papp A→B [1]: 0.3 ×10⁻⁶ cm/s
Pm [2]: 3.2
microsomal CLint (in vitro): < 3 µL/min/mg
logD (physchem): 3.2
SMILES: CCS(=O)(=O)c1ccc([C@@H](CC(=O)NC)C(=O)Nc2ccc(C(O)(C(F)(F)F)C(F)(F)F)cc2)cc1
pIC50 [3]: < 4.40

microsomal CLint (in vitro): < 3 µL/min/mg
logD (physchem): 2.9
SMILES: CCS(=O)(=O)c1ccc(C(NC(=O)OC)C(=O)Nc2ccc(C(O)(C(F)(F)F)C(F)(F)F)cc2)nc1 (stereo not given)
pIC50 [3]: 5.03

Continued, compound first:

SMILES: CS(=O)(=O)c1ccc2c(c1)CN(C(=O)C1CCO1)C2C(=O)Nc1ccc(C(O)(C(F)(F)F)C(F)(F)F)cc1 (stereo not given)
microsomal CLint (in vitro): < 3 µL/min/mg
logD (physchem): 2.2

SMILES: CCS(=O)(=O)c1ccc2c(c1)CN(C(=O)CCC#N)C2C(=O)Nc1ccc(C(O)(C(F)(F)F)C(F)(F)F)cc1 (stereo not given)
microsomal CLint (in vitro): < 3 µL/min/mg
logD (physchem): 2.5

SMILES: CS(=O)(=O)c1ccc2c(c1)CN(C(=O)CCC#N)C2C(=O)Nc1ccc(C(O)(C(F)(F)F)C(F)(F)F)cc1 (stereo not given)
microsomal CLint (in vitro): < 3 µL/min/mg
logD (physchem): 2.3

SMILES: CC(=O)N1Cc2cc(S(C)(=O)=O)ccc2[C@H]1C(=O)Nc1ccc(C(O)(C(F)(F)F)C(F)(F)F)cc1
microsomal CLint (in vitro): < 3 µL/min/mg
logD (physchem): 2.4

SMILES: CS(=O)(=O)c1ccc2c(c1)CNC2C(=O)Nc1ccc(C(O)(C(F)(F)F)C(F)(F)F)cc1 (stereo not given)
microsomal CLint (in vitro): < 3 µL/min/mg
logD (physchem): 3

SMILES: CNS(=O)(=O)c1ccc2c(c1)CN(C(C)=O)C2C(=O)Nc1ccc(C(O)(C(F)(F)F)C(F)(F)F)cc1 (stereo not given)
microsomal CLint (in vitro): < 3 µL/min/mg
logD (physchem): 2.8

SMILES: NCCC(=O)N1Cc2cc(S(=O)(=O)CC3CC3)ccc2C1C(=O)Nc1ccc(C(O)(C(F)(F)F)C(F)(F)F)cc1 (stereo not given)
microsomal CLint (in vitro): < 3 µL/min/mg
logD (physchem): 1.1

SMILES: CC(=O)N1Cc2cc(S(C)(=O)=O)ccc2[C@@H]1C(=O)Nc1ccc(C(O)(C(F)(F)F)C(F)(F)F)cc1
fraction unbound [4]: 0.21
fraction unbound [5]: 0.23
fraction unbound [6]: 0.12
Papp B→A [7]: 16 ×10⁻⁶ cm/s
Papp A→B (MDR1 [8]): 0.9 ×10⁻⁶ cm/s
Papp B→A (MDR1 [9]): 16 ×10⁻⁶ cm/s
hepatocyte CLint [10]: 2.3 µL/min/1e6 cells
hepatocyte CLint [11]: < 1 µL/min/1e6 cells
clearance [12]: 10.5 mL/min/kg
clearance [13]: 12.4 mL/min/kg
clearance [14]: 1.9 mL/min/kg
CL renal [15]: 2.9 mL/min/kg
CL [16]: 0.4 mL/min/kg
Vd [17]: 1.3 L/kg
Vd [18]: 2.5 L/kg
Vd [19]: 1.9 L/kg
half-life [20]: 2.7 h
half-life [21]: 3.3 h
half-life [22]: 16.6 h
bioavailability [23]: 67%
bioavailability [24]: 34%
bioavailability [25]: 97%
bioavailability [26]: 5%
bioavailability [27]: 50%
bioavailability [28]: 35%
Fa [29]: 71%
Fa [30]: 41%
Fa [31]: 99%
Fa [32]: 6%
Fa [33]: 52%
Fa [34]: 42%
microsomal CLint (in vitro): < 3 µL/min/mg
logD (physchem): 2.4
inhibition in vivo at 15 mg/kg (Mus musculus [35]): 67%
inhibition in vivo at 50 mg/kg (Mus musculus [36]): 65%
